# Read-outs that look alike come from different tables or passages of the source.
# Assay: Metabolic stability and intrinsic clearance in human liver microsomes (MICS)
# Type: in vitro ADME
# Conditions: pH 7.4
# Summary of the method: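 Parent depletion by LC-MS/MS, run in duplicate, gave in vitro t1/2 from the slope of ln(% remaining) versus time, converted to CLint (μL/min/mg protein). Incubations: 1 μM compound, microsomes at 0.5 mg/mL, pH 7.4 phosphate, 37° C, ±1 mM NADPH, timepoints 0.5, 5, 15, 30, 60 min.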
Compound,"microsomal CLint at 1 μM (human, microsomes)","microsomal CLint at 1 μM (human liver microsomes 0.5 mg/mL, 1 μM compound, read-out: intrinsic clearance in human MICS)"
"Cc1cc([C@@H](C)Oc2ccc(Cl)nc2C(N)=O)c2oc(-c3cc(F)c4nn(C)cc4c3)c(C)c(=O)c2c1 [Example 17B, 6-Chloro-3-[(1R)-1-[2-(7-fluoro-2-methyl-indazol-5-yl)-3,6-dimethyl-4-oxo-chromen-8-yl]ethoxy]pyridine-2-carboxamide]",< 50 µL/min/mg,–
"Cc1cc([C@@H](C)Oc2ccc(Cl)nc2-c2noc(=O)[nH]2)c2oc(-c3ccc4c(c3)OC(F)(F)O4)c(C)c(=O)c2c1 [Example 46A, 3-[6-Chloro-3-[(1R)-1-[2-(2,2-difluoro-1,3-benzodioxol-5-yl)-3,6-dimethyl-4-oxo-chromen-8-yl]ethoxy]-2-pyridyl]-4H-1,2,4-oxadiazol-5-one]",< 50 µL/min/mg,–
"CC(=O)Nc1ccc(-c2oc3c([C@@H](C)Oc4ccc(Cl)nc4C(N)=O)cc(C)cc3c(=O)c2C)cc1 [Example 58C, 3-[(1R)-1-[2-(4-Acetamidophenyl)-3,6-dimethyl-4-oxo-chromen-8-yl]ethoxy]-6-chloro-pyridine-2-carboxamide]",< 50 µL/min/mg,–
"Cc1cc([C@@H](C)Oc2ccc(Br)nc2C(N)=O)c2oc(-c3ccc4nn(C)cc4c3)c(C)c(=O)c2c1 [Example 81C, 6-Bromo-3-[(1R)-1-[3,6-dimethyl-2-(2-methylindazol-5-yl)-4-oxo-chromen-8-yl]ethoxy]pyridine-2-carboxamide]",< 50 µL/min/mg,–
"Cc1cc([C@@H](C)Oc2ccc(Cl)nc2NS(C)(=O)=O)c2oc(-c3cnn(C)c3)c(C)c(=O)c2c1 [Example 149A, N-[6-Chloro-3-[(1R)-1-[3,6-dimethyl-2-(1-methylpyrazol-4-yl)-4-oxo-chromen-8-yl]ethoxy]-2-pyridyl]methanesulfonamide]",–,< 50 µL/min/mg

# From patent publication US20240182460A1, “ALLOSTERIC CHROMENONE INHIBITORS OF PHOSPHOINOSITIDE 3-KINASE (PI3K) FOR THE TREATMENT OF DISEASE” (PETRA PHARMA CORPORATION, priority 2022, published 2024)
